# Data reported in patent publication US20200069691A1, “HETEROCYCLIC COMPOUNDS AS HIV PROTEASE INHIBITORS” (Merck Sharp & Dohme Corp., priority 2016, published 2020).
# Molecular target: T1, wild-type HIV-1 protease (Human immunodeficiency virus type 1 group M subtype B, UniProt P04585)
# T1 construct: Escherichia coli expressed wild-type HIV-1 protease protein
# Test: Assay for Inhibition of Microbial Expressed HIV Protease (peptide substrate cleavage, LC-MS/MS readout)
# Assay type: biochemical
# Conditions: E. coli expressed wild-type HIV-1 protease, mean of at least two independent experiments, read-out: HIV Pr Enzyme HIV1 PR IC50
# In short: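 Cleavage of Val-Ser-Gln-Asn-(β-naphthyl)Ala-Pro-Ile-Val (400 μM) by recombinant HIV-1 protease ([…]) ran 1 h at 30 °C after a 30 min room-temperature inhibitor preincubation in 50 mM sodium acetate pH 5.5. Product peak areas by LC-MS/MS gave inhibition; values average at least two independent runs.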
row,Structure (SMILES),IC50 [nM]
1,"Cc1nocc1-c1ncc2c(n1)CN(C(=O)c1cc(CN3C(=N)N[C@](CCCC(F)(F)F)(c4ccc(F)cc4)C3=O)ccc1C(F)(F)F)C2 [Compound 60, (5R)-5-(4-fluorophenyl)-2-imino-3-[3-{[2-(3-methylisoxazol-4-yl)-5,7-dihydro-6H-pyrrolo[3,4-d]pyrimidin-6-yl]carbonyl}-4-(trifluoromethyl)benzyl]-5-(4,4,4-trifluorobutyl)imidazolidin-4-one]",6.55
2,"N#CCc1ccc(-c2ncc3c(n2)CN(C(=O)c2cc(CN4C(=N)N[C@](CCCC(F)(F)F)(c5ccc(F)cc5)C4=O)ccc2C(F)(F)F)C3)cn1 [Compound 61, [5-(6-{[5-{[(4R)-4-(4-fluorophenyl)-2-imino-5-oxo-4-(4,4,4-trifluorobutyl)imidazolidin-1-yl]methyl}-2-(trifluoromethyl)-phenyl]carbonyl}-6,7-dihydro-5H-pyrrolo[3,4-d]pyrimidin-2-yl)pyridin-2-yl]acetonitrile]",6.6
3,"N=C1N[C@](CCCC(F)(F)F)(c2ccc(F)cc2)C(=O)N1Cc1ccc(C(F)(F)F)c(C(=O)N2Cc3cnc(-c4cccc(N5CCCC5)c4)nc3C2)c1 [Compound 62, (5R)-5-(4-fluorophenyl)-2-imino-3-[3-{[2-(3-pyrrolidin-1-ylphenyl)-5,7-dihydro-6H-pyrrolo[3,4-d]pyrimidin-6-yl]carbonyl}-4-(trifluoromethyl)benzyl]-5-(4,4,4-trifluorobutyl)imidazolidin-4-one]",6.86
4,"N=C1N[C@](CCCC(F)(F)F)(c2ccc(F)cc2)C(=O)N1Cc1ccc(C(F)(F)F)c(C(=O)N2Cc3cnc(-c4ccsc4)nc3C2)c1 [Compound 63, (5R)-5-(4-fluorophenyl)-2-imino-3-{3-[(2-thiophen-3-yl-5,7-dihydro-6H-pyrrolo[3,4-d]pyrimidin-6-yl)carbonyl]-4-(trifluoromethyl)-benzyl}-5-(4,4,4-trifluorobutyl)-imidazolidin-4-one]",6.94
5,"Cc1noc2ccc(-c3ncc4c(n3)CN(C(=O)c3cc(CN5C(=N)N[C@](CCCC(F)(F)F)(c6ccc(F)cc6)C5=O)ccc3C(F)(F)F)C4)cc12 [Compound 64, (5R)-5-(4-fluorophenyl)-2-imino-3-[3-{[2-(3-methyl-1,2-benzisoxazol-5-yl)-5,7-dihydro-6H-pyrrolo[3,4-d]pyrimidin-6-yl]carbonyl}-4-(trifluoromethyl)benzyl]-5-(4,4,4-trifluorobutyl)imidazolidin-4-one]",7.09
6,"CCc1nnc2n1CCN(C(=O)c1cc(CN3C(=N)N[C@](CCCC(F)(F)F)(c4ccc(F)cc4)C3=O)ccc1C(F)(F)F)C2 [Compound 65, (5R)-3-{3-[(3-ethyl-5,6-dihydro[1,2,4]triazolo[4,3-a]pyrazin-7(8H)-yl)carbonyl]-4-(trifluoromethyl)benzyl}-5-(4-fluorophenyl)-2-imino-5-(4,4,4-trifluorobutyl)imidazolidin-4-one]",7.39
7,"CN(C)S(=O)(=O)c1cccc(-c2ncc3c(n2)CN(C(=O)c2cc(CN4C(=N)N[C@](CCCC(F)(F)F)(c5ccc(F)cc5)C4=O)ccc2C(F)(F)F)C3)c1 [Compound 66, 3-(6-{[5-{[(4R)-4-(4-fluorophenyl)-2-imino-5-oxo-4-(4,4,4-trifluorobutyl)imidazolidin-1-yl]methyl}-2-(trifluoromethyl)-phenyl]carbonyl}-6,7-dihydro-5H-pyrrolo[3,4-d]pyrimidin-2-yl)-N,N-dimethylbenzene-sulfonamide]",7.73
8,"N=C1N[C@](CCCC(F)(F)F)(c2ccc(F)cc2)C(=O)N1Cc1ccc(C(F)(F)F)c(C(=O)N2Cc3cnc(-c4cccc(C(=O)N5CCSCC5)c4)nc3C2)c1 [Compound 67, (5R)-5-(4-fluorophenyl)-2-imino-3-[3-({2-[3-(thiomorpholin-4-ylcarbonyl)phenyl]-5,7-dihydro-6H-pyrrolo[3,4-d]pyrimidin-6-yl}carbonyl)-4-(trifluoromethyl)-benzyl]-5-(4,4,4-trifluorobutyl)-imidazolidin-4-one]",7.87
9,"CNc1ncc2c(n1)CN(C(=O)c1cc(CN3C(=N)N[C@](CCCC(F)(F)F)(c4ccc(F)cc4)C3=O)ccc1C(F)(F)F)C2 [Compound 68, (5R)-5-(4-fluorophenyl)-2-imino-3-[3-{[2-(methylamino)-5,7-dihydro-6H-pyrrolo[3,4-d]pyrimidin-6-yl]carbonyl}-4-(trifluoromethyl)-benzyl]-5-(4,4,4-trifluorobutyl)-imidazolidin-4-one]",8.3
10,"N=C1N[C@](CCCC(F)(F)F)(c2ccc(F)cc2)C(=O)N1Cc1ccc(C(F)(F)F)c(C(=O)N2Cc3cnc(-c4cnc(-n5cccn5)nc4)nc3C2)c1 [Compound 69, (5R)-5-(4-fluorophenyl)-2-imino-3-[3-({2-[2-(1H-pyrazol-1-yl)pyrimidin-5-yl]-5,7-dihydro-6H-pyrrolo[3,4-d]pyrimidin-6-yl}carbonyl)-4-(trifluoromethyl)benzyl]-5-(4,4,4-trifluorobutyl)imidazolidin-4-one]",8.8
11,"N=C1N[C@](C[C@@H]2CCOC2)(c2ccccc2)C(=O)N1Cc1ccc(C(F)(F)F)c(C(=O)N2Cc3nccnc3C2)c1 [Compound 70, (5R)-3-[3-(5,7-dihydro-6H-pyrrolo[3,4-b]pyrazin-6-ylcarbonyl)-4-(trifluoromethyl)-benzyl]-2-imino-5-phenyl-5-[(3R)-tetrahydrofuran-3-ylmethyl]imidazolidin-4-one]",8.89
12,"N=C1N[C@](CCCC(F)(F)F)(c2ccc(F)cc2)C(=O)N1Cc1ccc(C(F)(F)F)c(C(=O)N2Cc3cnc(NC4CCCC4)nc3C2)c1 [Compound 71, (5R)-3-[3-{[2-(cyclopentylamino)-5,7-dihydro-6H-pyrrolo[3,4-d]pyrimidin-6-yl]carbonyl}-4-(trifluoromethyl)benzyl]-5-(4-fluorophenyl)-2-imino-5-(4,4,4-trifluorobutyl)imidazolidin-4-one]",9.19
13,"N=C1N[C@](CCCC(F)(F)F)(c2ccc(F)cc2)C(=O)N1Cc1ccc(C(F)(F)F)c(C(=O)N2Cc3cnc(-c4cnn(-c5ccccc5)c4)nc3C2)c1 [Compound 72, (5R)-5-(4-fluorophenyl)-2-imino-3-[3-{[2-(1-phenyl-1H-pyrazol-4-yl)-5,7-dihydro-6H-pyrrolo[3,4-d]pyrimidin-6-yl]carbonyl}-4-(trifluoromethyl)benzyl]-5-(4,4,4-trifluorobutyl)imidazolidin-4-one]",9.2
14,"N=C1N[C@](CCCC(F)(F)F)(c2ccc(F)cc2)C(=O)N1Cc1ccc(C(F)(F)F)c(C(=O)N2Cc3cnc(C(F)(F)F)nc3C2)c1 [Compound 73, (5R)-5-(4-fluorophenyl)-2-imino-5-(4,4,4-trifluorobutyl)-3-[4-(trifluoromethyl)-3-{[2-(trifluoro-methyl)-5,7-dihydro-6H-pyrrolo-[3,4-d]pyrimidin-6-yl]carbonyl}-benzyl]imidazolidin-4-one]",9.29
15,"N=C1N[C@](CCCC(F)(F)F)(c2ccc(F)cc2)C(=O)N1Cc1ccc(C(F)(F)F)c(C(=O)N2Cc3cnc(NCC4CC4)nc3C2)c1 [Compound 74, (5R)-3-[3-({2-[(cyclopropylmethyl)amino]-5,7-dihydro-6H-pyrrolo[3,4-d]pyrimidin-6-yl}carbonyl)-4-(trifluoromethyl)benzyl]-5-(4-fluorophenyl)-2-imino-5-(4,4,4-trifluorobutyl)imidazolidin-4-one]",9.6
16,"N=C1NC(CCC2CC2)(c2cccc(C(F)(F)F)c2)C(=O)N1Cc1ccc(C(F)(F)F)c(C(=O)N2Cc3nccnc3C2)c1 (stereo not drawn) [Compound 75, 5-(2-cyclopropylethyl)-3-[3-(5,7-dihydro-6H-pyrrolo[3,4-b]pyrazin-6-ylcarbonyl)-4-(trifluoromethyl)-benzyl]-2-imino-5-[3-(trifluoro-methyl)phenyl]-imidazolidin-4-one]",10.2
17,"N=C1NC(CCC2CC2)(c2ccc(-c3cccnc3)cc2)C(=O)N1Cc1ccc(C(F)(F)F)c(C(=O)N2Cc3nccnc3C2)c1 (stereo not drawn) [Compound 76, 5-(2-cyclopropylethyl)-3-[3-(5,7-dihydro-6H-pyrrolo[3,4-b]pyrazin-6-ylcarbonyl)-4-(trifluoromethyl-)benzyl]-2-imino-5-(4-pyridin-3-ylphenyl) imidazolidin-4-one]",10.4
18,"CC(C)CC(c1ccc(C(F)(F)F)c(C(=O)N2Cc3nccnc3C2)c1)N1C(=N)N[C@](CC2CC2)(c2ccccc2)CC1=O (stereo partly drawn) [Compound 77, (6S)-6-(cyclopropylmethyl)-3-{1-[3-(5,7-dihydro-6H-pyrrolo[3,4-b]pyrazin-6-ylcarbonyl)-4-(trifluoromethyl)phenyl]-3-methyl-butyl}-2-imino-6-phenyltetra-hydropyrimidin-4(1H)-one]",10.5
19,"N=C1NC(CCC2CC2)(c2cccc(F)c2)C(=O)N1Cc1ccc(C(F)(F)F)c(C(=O)N2CCn3c(nnc3C(F)(F)F)C2)c1 (stereo not drawn) [Compound 78, 5-(2-cyclopropylethyl)-5-(3-fluorophenyl)-2-imino-3-[4-(trifluoromethyl)-3-{[3-(trifluoro-methyl)-5,6-dihydro-[1,2,4]triazolo-[4,3-a]pyrazin-7(8H)-yl]carbonyl}-benzyl]imidazolidin-4-one]",10.5
20,"N#Cc1cccc(-c2ncc3c(n2)CN(C(=O)c2cc(CN4C(=N)N[C@](CCCC(F)(F)F)(c5ccc(F)cc5)C4=O)ccc2C(F)(F)F)C3)c1 [Compound 79, 3-(6-{[5-{[(4R)-4-(4-fluorophenyl)-2-imino-5-oxo-4-(4,4,4-trifluoro-butyl)imidazolidin-1-yl]methyl}-2-(trifluoromethyl)-phenyl]carbonyl}-6,7-dihydro-5H-pyrrolo[3,4-d]pyrimidin-2-yl)benzonitrile]",10.8
21,"CN(C)c1ncc2c(n1)CN(C(=O)c1cc(CN3C(=N)N[C@](CCCC(F)(F)F)(c4ccc(F)cc4)C3=O)ccc1C(F)(F)F)C2 [Compound 80, (5R)-3-[3-{[2-(dimethylamino)-5,7-dihydro-6H-pyrrolo[3,4-d]pyrimidin-6-yl]carbonyl}-4-(trifluoromethyl)benzyl]-5-(4-fluorophenyl)-2-imino-5-(4,4,4-trifluorobutyl)imidazolidin-4-one]",11.5
